Read-outs that look alike come from different tables or passages of the source. A value given as a limit tells only on which side of the number the result lay.

One may read the IC50 as the concentration at which inhibition is half-maximal.

In data set [1] the target is bee venom phospholipase A2 (Apis mellifera, UniProt P00630). The data set is described as follows: biochemical. The following applies: read-out: IC50 (micromolar), Phospholipase A2 Assay.
The conditions of data set [2]: prior art; cited from earlier work.
The next data set concerns Calcium Channel. The data set is described as follows: Calcium Channel (mobilization) Inhibition Assay. Format: cell-based. An excerpt:
Calcium Channel (mobilization) Inhibition Assay
Polymorphonuclear leukocytes (PMNa), gastric glands, GH3 cells, A431 cells, spleen cells, human keratinocytes corneal cells, etc. were loaded with the Ca^2+ sensitive fluorescent dye, Fura-2. The appropriate cell type was chosen and the potency and efficacy of the anti-inflammatoryfuranones on calcium mobilization, calcium channel inhibition was quantitated. The methods used for A431 cells listed below are representative of those used for other cells.
A431 cells were detached using a 5-10 min trypsin-EDTA treatment whereas GH3 cells were treated 2 to 5 min with a 1% pancreatin solution. Cells were immediately washed twice in a 20 mM HEPES buffer (pH 7.4) containing 120 mM NaCl, 6 mM KCl, 1 mM MgSO4, 1 mg/ml glucose and 1 mg/ml pyruvate and 1.4 mM calcium (medium A). Approximately 5×10^6 cells were suspended in medium A and incubated with 4 uM fura-2-AM for 15 min at 37° C.
After washing the fura-2 loaded cells, the uptake of dye was checked using fluorescence microscopy and found to be evenly distributed in the cytosol of all cells. Fluorescence was continuously recorded with a Perkin-Elmer LS-5 spectrofluorometer. The excitation wavelength was set at 340 nm and emission wavelength set at 500 nm. The cell suspension was continually stirred, maintained at 37° C. and equilibrated for approximately 5 min before addition of various agents. [Ca^2+ i was calculated using the following formula: [formula]
All fluorescence values were measured relative to a EGTA-quenched signal determined as follows: F was the relative fluorescence measurement of the sample. Fmax was determined by lysing the cells with digitonin (100 ug/ml) in DMSO. After Fmax was determined the pH was adjusted to 8, with NaOH and Ca^2+ chelated with 3 mM EGTA to totally quench the fura-2 signal and obtain Fmin.
When quin-2- was used, cells were incubated with 10 uM quin-2- at 37° C. for 1 hour, washed and then used.
In the above-described phospholipase A2 (PLA2) and calcium^+ channel mobilization assays certain examplary compounds made from the synthetic intermediate compounds of the present invention had the following activities.

A short description of data set [3]: Isomerization upon standing. Format: physicochemical.
Data set [4] concerns phosphoinositide-specific phospholipase C. As to conditions: reported, Bennett et al, Molecular Pharmacology 32:587-593 (1987); cited from earlier work.
Where [5] appears, read: read-out: IC50 (umolar) (KCl regulated), Calcium Channel Inhibition Assay.
[6] abbreviates: read-out: IC50 (umolar) (TRH regulated), Calcium Channel Inhibition Assay.

Sequence of bee venom phospholipase A2 (P00630 34-167 limits assumed): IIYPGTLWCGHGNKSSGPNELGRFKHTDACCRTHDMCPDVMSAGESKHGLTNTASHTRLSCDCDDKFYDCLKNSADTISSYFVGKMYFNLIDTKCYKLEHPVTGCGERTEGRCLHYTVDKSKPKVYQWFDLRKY

Consider `CCCCCCCCCCCCNC(=O)OCC1=CC(=O)OC1O` (stereo not drawn) [Compound 22, 4-(N-Dodecylcarbamoyloxymethyl)-5-hydroxy-2(5H)-furanone], for which the IC50 in data set [1] stood at 0.05 µM.
As for `CCCCCCCCCCCC(=O)OCCCC1=CC(=O)OC1O` (stereo not drawn) [Compound 50], in data set [1], the IC50 was determined as 0.5 µM.
For `CCCCCCCCCCCCS(=O)(=O)NCC(OC(C)=O)C1=CC(=O)OC1O` (stereo not drawn) [Compound 43, 4-[1-Acetoxy-2-(dodecanesulfonylamido)ethyl]-5-hydroxy-2(5H)-furanone], the IC50 in data set [1] was 0.03 µM.
`CCCCCCCCCCCC(=O)NCC1=CC(=O)OC1O` (stereo not drawn) [Compound 25, 4-(N-Dodecanoylaminomethyl)-5-hydroxy-2(5H)-furanone]: the IC50 in data set [1] is 0.26 µM.
`CC1=C(CC/C(C)=C/CCC(C=O)=CCC(O)C2=CC(=O)OC2O)C(C)(C)CCC1` (stereo not drawn) [seco-manoalide]: the “anti-inflammatory, immunosuppressive and analgesic properties” value in data set [2] is recorded as “anti-inflammatory activity”.
Take `CCCCCCCCCCCC(=O)OC(CNC(=O)N(CC)CC)C1=CC(=O)OC1O` (stereo not drawn) [Compound 46, 4-[1-Dodecanoyloxy-2-(N',N'-diethyl)carboxyamido]ethyl-5-hydroxy-2(5H)-furanone]: the concentration for half-maximal inhibition (IC50) in data set [1] stood at 0.02 µM.
As for `CC(=O)OC(CNC(=O)CCCCCCCCCCC(=O)O)C1=CC(=O)OC1O` (stereo not drawn) [Compound 44], the IC50 in data set [1] came out at 0.09 µM.
`CCCCCCCCCCCCC(NC(=O)C(F)(F)F)C1=CC(=O)OC1O` (stereo not drawn) [Compound 30]: the IC50 in data set [1] was 0.06 µM.
As for `CCCCCCCCCCCCS(=O)(=O)NCC1=CC(=O)OC1O` (stereo not drawn) [Compound 27, 4-(N-Dodecylsulfonamido)-methyl-5-hydroxy-2(5H)-furanone], the IC50 in data set [1] was determined as 0.04 µM.
As to `CCCCCCCCCCCCC(OC(C)=O)C1=C(C)C(=O)OC1O` (stereo not drawn) [Compound 61, 4-(1-Acetoxytridecyl)-3-methyl-5-hydroxy-2(5H)-furanone], the IC50 in data set [1] was greater than 1 µM.
As for `CCCCCCCCCCCCP(=O)(O)OCC1=CC(=O)OC1O` (stereo not drawn) [Compound 21, 4-(Dodecylohosphonyloxymethyl)-5-hydroxy-2(5H)-furanone], the IC50 in data set [1] came to 0.03 µM.
For `CCCCCCCCCCCCC(NC(C)=O)C1=CC(=O)OC1O` (stereo not drawn) [Compound 29], the IC50 in data set [1] is 0.07 µM.
On to `CCCCCCCCCCCC(=O)NCC(OC(=O)CCCCCCCCCCC)C1=CC(=O)OC1O` (stereo not drawn) [Compound 42, 4-(2-Undecanylamido-1-dodecanoyloxy)ethyl-5-hydroxy-2(5H)-furanone], for which, in data set [1], the IC50 was found to be 0.03 µM.
Regarding `CCCCCCCCCCCCC(OC(C)=O)C1=CCOC1=O` (stereo not drawn) [Compound 72, 3-(1-Acetoxytridecyl)-2(5H)-furanone], the IC50 was found to be 0.88 µM in the data set on Calcium Channel (setting [5]) and 16.9 µM in the data set with Calcium Channel (setting [6]).
`CCCCCCCCCCCC(=O)OC(CNC(=O)N1CCN(S(C)(=O)=O)CC1)C1=CC(=O)OC1O` (stereo not drawn) [Compound 45]: the IC50 in data set [1] was found to be 0.05 µM.
For `CCCCCCCCCCCC(=O)NCC(O)C1=CC(=O)OC1O` (stereo not drawn) [Compound 40, 4-(2-Undecanylamido-1-hydroxy)ethyl-5-hydroxy-2(5H)-furanone], in data set [1], the IC50 was 0.28 µM.
As for `CCCCCCCCCCCC(=O)NCC(OC(C)=O)C1=CC(=O)OC1O` (stereo not drawn) [Compound 41, 4-(1-Acetoxy-2-undecanylamido)ethyl-5-hydroxy-2(5H)-furanone], the IC50 in data set [1] worked out at 0.04 µM.
`CCCCCCCCCCCCC(OC(C)=O)C1=CC(=O)OC1O` (stereo not drawn) [Compound 28, 4(1-Acetoxytridecyl)-5-hydroxy-2(5H)-furanone]: the IC50 in data set [1] was 0.04 µM.
As for `CCCCCCCCCCCCC(O)C1=CCOC1=O` (stereo not drawn) [Compound 71, 3-(1-Hydroxytridecyl)-2(5H)-furanone], the IC50 in the data set with Calcium Channel (setting [5]) worked out at 1.1 µM; with Calcium Channel (setting [6]), 2 µM.
Regarding `CCCCCCCCCCCCC(OC(C)=O)C1=CC(=O)OC1(C)O` (stereo not drawn) [Compound 60, 4-(1-Acetoxytridecyl)-5-hydroxy-5-methyl-2-furanone], the “isomerization of epimers upon standing” value in data set [3] is listed as “isomerizes upon standing”. The IC50 in data set [1] came to 0.06 µM.
Turning to `CCCCCCCCCCCCNC(=O)NCC1=CC(=O)OC1O` (stereo not drawn) [Compound 26, 4-(N-Dodecylureido)methyl-5-hydroxy-2(5H)-furanone], the IC50 in data set [1] stood at 0.13 µM.
Still for that read-out and setting: the value for `CCCCCCCCCCCCSCC1=CC(=O)OC1O` (stereo not drawn) [Compound 47, 4-Dodecanethiomethyl-5-hydroxy-2(5H)-furanone] was 0.06 µM.
Regarding `CC1=C(CC/C(C)=C/CCC(C=O)=CC=CC2=CC(=O)OC2O)C(C)(C)CCC1` (stereo not drawn) [dehydro-seco-manoalide], the “anti-inflammatory, immunosuppressive and analgesic properties” value in data set [2] is “anti-inflammatory activity”.
Consider `CCCCCCCCCCCCC(NS(C)(=O)=O)C1=CC(=O)OC1O` (stereo not drawn) [Compound 31], for which the IC50 in data set [1] turned out to be 0.05 µM.
For the compound `COCCOCOCC1=CC(=O)OC1O` (stereo not drawn) [Compound 20], in data set [1], the IC50 was greater than 1 µM.
With `CCCCCCCCCCCCOCC1=CC(=O)OC1O` (stereo not drawn) [Compound 23], the IC50 in data set [1] is 0.04 µM.
As to `CCCCCCCCOC(=O)C=CC1=CC(=O)OC1O` (stereo not drawn) [Compound 51, Octyl 3-(5-hydroxy-2-on-4-furyl)propen-2-oate], the IC50 in data set [1] is 0.09 µM.
For `CC1=C(CC/C(C)=C/CCC2=CCC(C3=CC(=O)OC3O)OC2O)C(C)(C)CCC1` (stereo not drawn) [manoalide, reference compound], the “inhibition of phosphoinositide-specific phospholipase C” value in data set [4] was “inhibition of phosphoinositide-specific phospholipase C”. Besides, in data set [2], the “anti-inflammatory, immunosuppressive and analgesic properties” value is “anti-inflammatory,immunosuppressive and analgesic properties”. In addition, the IC50 in the data set with Calcium Channel (setting [5]) and in the data set on Calcium Channel (setting [6]) was 1 µM throughout.
With `CCCCCCCCCCCCC(NC(=O)NC)C1=CC(=O)OC1O` (stereo not drawn) [Compound 32, 4-[-1-(N-methylureido)tridecyl]-5-hydroxy-2(5H)-furanone], the IC50 in data set [1] stood at 0.48 µM.
The same measure, in the same setting: the value for `CCCCCCCCCCCCC(OC(=O)Nc1ccccc1)C1=CC(=O)OC1(C)O` (stereo not drawn) [Compound 62, 5-Methyl-5-hydroxy-4-(1-phenylcarbamoyloxy)tridecyl-2-furanone] was 0.24 µM; that for `CCOP(=O)(OCC)OCC1=CC(=O)OC1O` (stereo not drawn) [Compound 24, 4-1-(Diethylphosphoryloxy)methyl-5-hydroxy-2(5H)-furanone] was 0.34 µM.
Take `CCCCCCCCC(OC(C)=O)C1=CCOC1=O` (stereo not drawn) [Compound 70, 3-(1-Acetoxynonyl)-2(5H)-furanone]: the IC50 in the data set on Calcium Channel (setting [5]) turned out to be 3.4 µM; in the data set with Calcium Channel (setting [6]), 4.9 µM.

The record behind these values is US5171863A, “Intermediates for preparing 4-substituted 2-5(H)-furanones as anti-inflammatory agents” (Allergan, Inc., priority 1991, dated 1992).
